Experimental data published in patent US10442835B2, “Water-soluble rapamycin derivatives” (Zhejiang Hisun Pharmaceutical Co., Ltd., priority 2016, dated 2019).
Several values for one entry are separate records, joined by “and”; a condition that tells them apart may be missing. Equal values may be shown once.

Experiments:
[1] = test system: human liver cancer cell HepG2; assay: In vitro activity assay, growth of HepG2 (thymidine incorporation); assay type: cell-based; conditions: 48 h
Excerpt: (§1) The anti-tumor activity and toxicity of the compounds according to the present invention can be assayed through standard operational procedures of pharmacological experiment. The experiments carried out herein can test the inhibitory effect of the compounds according to the present invention on the growth of human liver cancer cell HepG2, lung cancer cell NCI460, prostate cancer cell DU145, prostate cancer cell PC3, and human breast cancer cell MDA-MB-435. The operational procedure used is briefly described below by taking the inhibitory activity assay against human liver cancer cell HepG2 as an example.
Human liver cancer cell HepG2 grew in the follow medium:
Preparation of the growth medium: BRL minimum essential medium with Earle Salts (500 mL), with the addition of the following agents:
(§2) The operational procedure for the assay is as follows:
(§3) 1. Cells after being trypsinized were inoculated in 96-well plates at a concentration of 10^4 cells/well, and allowed to grow in a medium with a final volume of 200 μL. The 96-well plates after inoculation are allowed to stand for 24 hours at 37° C., in order to allow the cells to adhere to the surface of the wells.
(§4) 2. The medium was removed by carefully pipetting without disturbing the cell monolayer. 200 μL Fresh medium was added into each well. It is arranged to make it possible to collect samples from enough wells to run the experiments in triplicate.
(§5) 3. The compounds to be tested according to the present invention were dissolved into 10 μL phosphate buffered solution (PBS) and incubated for 48 h at 37° C.
(§6) 4. In the last 6 h of incubation, cells in each well of the 96-well plates were labeled by 1 microcurie T thymidine (New England Nuclear thymidine), by adding 10 μL PBS containing 1 microcurie T thymidine (which was added into the PBS on the day of collecting the samples for test). The 96-well plates were then returned to the incubator and incubated for the last 6 h.
(§7) 5. Without disturbing the cell monolayer, the radioactive medium was removed by pipetting. Then 50 μL of BRL 10×trypsin was added to each well, followed by incubation at 37° C. for 10 minutes or until the cell monolayer was detached from the bottom (or the wall) of each well. Samples were collected on glass-fiber diskettes using a Skatron 96-well cell harvester. Cells depositing on the glass-fiber diskettes were counted in a Wallac Betaplate counter.

lung cancer cell NCI460 = assay: In vitro activity assay, growth of NCI460; assay type: cell-based; conditions: NCI-460, 48 h
Excerpt: as §1, §2, §3, §4, §5, §6, §7

[2] = test system: prostate cancer cell DU145; assay: In vitro activity assay, growth of DU145; assay type: cell-based; conditions: Homo sapiens; DU-145; 48 h
Excerpt: as §1, §2, §3, §4, §5, §6, §7

prostate cancer cell PC3 = assay: In vitro activity assay, growth of PC3; assay type: cell-based; conditions: 48 h
Excerpt: as §1, §2, §3, §4, §5, §6, §7

[3] = test system: human breast cancer cell MDA-MB-435; assay: In vitro activity assay, growth of MDA-MB-435; assay type: cell-based; conditions: 48 h
Excerpt: as §1, §2, §3, §4, §5, §6, §7

[4] = test system: human lung cancer cell NCI-H460; assay: In vivo inhibitory activity against NCI-H460 tumor in nude mice; conditions: everolimus 5 mg/kg, compound I-1 6.8 mg/kg, qw 4×
DU145 = assay: In vivo tumor inhibitory efficacy against DU145 tumor in nude mice, intragastrical vs injection; conditions: G1 everolimus 5 mg/kg intragastrical, 3×/w, 4 w
Description: (§8) DU145 (the 3rd generation) tumors in the rapid proliferation stage inoculated in the axilla of nude mice were cut into tumor lumps with a size of 1 mm*1 mm*1 mm and then were inoculated subcutaneously to the right limb of nude mice using a trocar under a sterile condition. When the tumors grow to 150-200 mm^3, the mice were randomly divided into three groups and then administrated with the compounds for 4 weeks. The major diameter (a) and the minor diameter (b) of the tumors were measured 2 or 3 times a week. The tumor volume (TV) was calculated with the following equation: TV=½×a×b^2. Tumors were stripped and weighted at Day 28 and the tumor inhibition rate was calculated using the following equation: (tumor weight of control−tumor weight of experimental group)/tumor weight of control×100%.
(§9) The nude mice were divided into 3 groups with 4 mice per group when the tumors averagely grew to about 185-200 mm^3, depending on the growth regularity of the tumor and the dosage regimen.

[5] = test system: human renal cell carcinoma OS-RC-2; assay: In vivo inhibitory activity against human renal cell carcinoma OS-RC-2 in nude mice
Description: The tumor inhibition rate was calculated.

[6] = Body weight of DU145 tumor nude mice; conditions: G1 everolimus 5 mg/kg intragastrical, 3×/w, 4 w;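 further: dosing started once xenografts reached 150-200 mm^3, with mice randomized into three groups, loss of body weight served as an indirect sign of drug toxicity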
Description: as §8, §9
G1: positive drug group: Everolimus (5 mg/kg, qw, 4 w, 3×/w); administration route: intragastrical administration;

[7] = Body weight of NCI-H460 tumor nude mice; conditions: everolimus 5 mg/kg, compound I-1 6.8 mg/kg, qw 4×;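 further: Tumor-bearing mice dosed for 4 weeks once tumors reached 150–200 mm^3, with a vehicle control group, and body weight loss taken as an indirect sign of drug toxicity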
Description: NCI-H460 (the 3rd generation) tumors in the rapid proliferation stage inoculated in the axilla of nude mice were cut into tumor lumps with a size of 1 mm*1 mm*1 mm and then were inoculated subcutaneously to the right limb of nude mice using a trocar under a sterile condition. When the tumors grew to 150˜200 mm^3, the mice were divided into groups and then administrated with the compounds for 4 weeks. The major diameter (a) and the minor diameter (b) of the tumors were measured two or three times a week. The tumor volume (TV) and the relative tumor proliferation rate (T/C) were calculated. The equation for calculating the tumor volume is: TV=½×a×b^2. The equation for calculating the relative tumor proliferation rate is T/C=TRTC/CRTV (TRTC: average relative tumor volume in the treatment group; CRTV: average relative tumor volume in the vehicle control group). Tumors were stripped and weighted at Day 28 and the tumor-inhibition rate was calculated with the following equation: (tumor weight of control−tumor weight of experimental group)/tumor weight of control×100%.
Grouping method: the mice were divided into 3 groups with 6 mice per group when the tumors averagely grew to about 195 mm^3, depending on the growth regularity of the tumor and the dosage regimen. Administration route: intragastrical administration.
G1: Control (vehicle, qw 4×, iv)
G2: Positive drug group: Everolimus (5 mg/kg, qw 4×, iv)

## CO[C@H]1C[C@@H]2CC[C@@H](C)[C@@](O)(O2)C(=O)C(=O)N2CCCC[C@H]2C(=O)O[C@H]([C@H](C)C[C@@H]2CC[C@@H](OCCO)[C@H](OC)C2)CC(=O)[C@H](C)/C=C(\C)[C@@H](O)[C@@H](OC)C(=O)[C@H](C)C[C@H](C)/C=C/C=C/C=C/1C [Everolimus, reference compound]
[1]
  IC50: 52.29 ± 0.006 µM
Lung cancer cell NCI460
  IC50: 99.811 ± 0.004 µM
[2]
  IC50: 57.327 ± 0.005 µM
Prostate cancer cell PC3
  IC50: 30.27 ± 0.006 µM
[3]
  IC50: 62.57 ± 0.003 µM
[4]; Day 0
  Mean Volume of Tumor: 194.8659 mm^3
[4]; Day 3
  Mean Volume of Tumor: 264.7517 mm^3
  TRTV (average relative tumor volume in the treatment group): 1.3586
[4]; Day 7
  Mean Volume of Tumor: 356.6133 mm^3
  TRTV (average relative tumor volume in the treatment group): 1.8300
[4]; Day 10
  Mean Volume of Tumor: 457.1105 mm^3
  TRTV (average relative tumor volume in the treatment group): 2.3458
[4]; Day 14
  Mean Volume of Tumor: 626.5192 mm^3
  TRTV (average relative tumor volume in the treatment group): 3.2151
[4]; Day 17
  Mean Volume of Tumor: 730.3766 mm^3
  TRTV (average relative tumor volume in the treatment group): 3.7481
[4]; Day 21
  Mean Volume of Tumor: 1386.2102 mm^3
  TRTV (average relative tumor volume in the treatment group): 6.6005
[4]; Day 24
  Mean Volume of Tumor: 1593.5901 mm^3
  TRTV (average relative tumor volume in the treatment group): 7.1515
[4]; Day 28, by tumor weight
  Tumor Inhibition Rate: 56% and 56.01%
[4]; Day 28
  Mean Volume of Tumor: 1955.7073 mm^3
  TRTV (average relative tumor volume in the treatment group): 9.5230
  Tumor Weight ± SD: 1.1741 ± 0.3687 g
DU145; Day 0
  Mean Volume of Tumor: 198.71 mm^3
DU145; Day 3
  Mean Volume of Tumor: 216.57 mm^3
DU145; Day 7
  Mean Volume of Tumor: 208.07 mm^3
DU145; Day 10
  Mean Volume of Tumor: 215.24 mm^3
DU145; Day 14
  Mean Volume of Tumor: 236.94 mm^3
DU145; Day 17
  Mean Volume of Tumor: 268.62 mm^3
DU145; Day 21
  Mean Volume of Tumor: 298.50 mm^3
DU145; Day 24
  Mean Volume of Tumor: 289.57 mm^3
DU145; Day 28
  Mean Volume of Tumor: 302.22 mm^3
[5]; G2 everolimus 2 mg/kg ig 3×/qw
  Tumor Inhibition Rate: 35.6%
[5]; G3 everolimus 6 mg/kg ig 3×/qw
  Tumor Inhibition Rate: 41.1%
[5]; end of experiment, G3 everolimus 6 mg/kg ig 3×/qw
  Tumor Weight ± SD: 0.4093 ± 0.3863 g
[6]; Day 0
  Body Weight, mean value: 24.36 g
[6]; Day 3
  Body Weight, mean value: 24.68 g
  Decrease rate (body weight): −1.32%
[6]; Day 3 vs Day 0
  Decrease in body weight: -0.32 g
[6]; Day 7
  Body Weight, mean value: 24.99 g
  Decrease rate (body weight): −2.59%
[6]; Day 7 vs Day 0
  Decrease in body weight: -0.63 g
[6]; Day 10
  Body Weight, mean value: 24.93 g
  Decrease rate (body weight): −2.32%
[6]; Day 10 vs Day 0
  Decrease in body weight: -0.57 g
[6]; Day 14
  Body Weight, mean value: 24.94 g
  Decrease rate (body weight): −2.38%
[6]; Day 14 vs Day 0
  Decrease in body weight: -0.58 g
[6]; Day 17
  Body Weight, mean value: 25.88 g
  Decrease rate (body weight): −6.24%
[6]; Day 17 vs Day 0
  Decrease in body weight: -1.52 g
[6]; Day 21
  Body Weight, mean value: 25.27 g
  Decrease rate (body weight): −3.75%
[6]; Day 21 vs Day 0
  Decrease in body weight: -0.91 g
[6]; Day 24
  Body Weight, mean value: 25.33 g
  Decrease rate (body weight): −3.96%
[6]; Day 24 vs Day 0
  Decrease in body weight: -0.97 g
[6]; Day 28
  Body Weight, mean value: 25.31 g
  Decrease rate (body weight): −3.90%
[6]; Day 28 vs Day 0
  Decrease in body weight: -0.95 g
[7]; Day 0
  Body Weights, mean value: 24.50 g
[7]; Day 3
  Body Weights, mean value: 24.38 g
  Decrease rate (body weight): 0.51%
[7]; Day 3 vs Day 0
  Decrease in body weight: 0.13 g
[7]; Day 7
  Body Weights, mean value: 25.44 g
  Decrease rate (body weight): −3.82%
[7]; Day 7 vs Day 0
  Decrease in body weight: -0.94 g
[7]; Day 10
  Body Weights, mean value: 24.50 g
  Decrease rate (body weight): 0.00%
[7]; Day 10 vs Day 0
  Decrease in body weight: 0.00 g
[7]; Day 14
  Body Weights, mean value: 25.68 g
  Decrease rate (body weight): −4.83%
[7]; Day 14 vs Day 0
  Decrease in body weight: -1.18 g
[7]; Day 17
  Body Weights, mean value: 25.39 g
  Decrease rate (body weight): −3.63%
[7]; Day 17 vs Day 0
  Decrease in body weight: -0.89 g
[7]; Day 21
  Body Weights, mean value: 26.13 g
  Decrease rate (body weight): −6.65%
[7]; Day 21 vs Day 0
  Decrease in body weight: -1.63 g
[7]; Day 24
  Body Weights, mean value: 25.09 g
  Decrease rate (body weight): −2.41%
[7]; Day 24 vs Day 0
  Decrease in body weight: -0.59 g
[7]; Day 28
  Body Weights, mean value: 26.14 g
  Decrease rate (body weight): −6.67%
[7]; Day 28 vs Day 0
  Decrease in body weight: -1.64 g
